What all share (assay): NCI-60 cell line screen, 48 h
Experiment [1] has as its system HCC-2998 colon.
The subject of experiment [2] is MALME-3M melanoma.
Experiment [3] relates to HCT-15 colon.
Experiment [4] concerns SF-539 CNS.
Experiment [5] relates to CCRF-CEM leukemia.
Experiment [6] relates to SNB-75 CNS.
Experiment [7] deals with OVCAR-5 ovarian.
Experiment [8] concerns MOLT-4 leukemia.
Experiment [9] deals with A498 renal.
Experiment [10] deals with SNB-78 CNS.

Several values for one entry are separate records, joined by “and”; a condition that tells them apart may be missing. Equal entries are not always repeated.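 Growth conditions: 96-well plates. Treatment: test compound, 48 hours, 5 concentrations. Analysis: linear interpolation between bracketing concentrations; unreached endpoints set to highest concentration. At the GI50, growth is halved. At the TGI there is no net growth.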

On to `Fc1ccc(C2CC(c3cccc(Nc4ccncc4)c3)=NN2c2cc(Cl)cc(Cl)c2)cc1` (centres undefined), for which the GI50 was 1.6 µM in experiment [1]; 1.72 µM in experiment [2]; 1.77 µM in experiment [3]; 1.64 µM in experiment [4]; 2.9 µM in experiment [5]; 1.31 µM in experiment [6]. The figures for the GI50 in [7], in [8] and in [9] were 1.73 µM, 2.23 µM and 1.17 µM, respectively. Besides, the TGI is 2.96 µM in [1]; 3.41 µM in experiment [2]; 3.47 µM in [3]; 3.11 µM in experiment [4]; greater than 100 µM in experiment [5]; 2.91 µM in experiment [6]. Moreover, the TGI in [7] came to 3.16 µM; in [8], 5.23 µM; in experiment [9] it was 2.6 µM.
Take `COC(=O)c1nc(-c2ccc3c(n2)C(=O)C(N)=C(OC)C3=O)c(N)c(-c2ccc(OC)c(OC)c2O)c1C`: the TGI in experiment [1] is 0.221 µM; in experiment [2], 1.74 µM; in experiment [3], 2.68 µM; in experiment [4], 1.39 µM; in [5], greater than 100 µM; in experiment [6] it was 3.73 µM. For the same molecule, the TGI in experiment [10] came to 8.38 µM; in experiment [9], 3.17 µM.
As for `COc1ccc(C[C@H](N)C(=O)N2C[C@H](CO)C[C@H](n3ccc(=O)[nH]c3=O)C2)cc1`, the TGI in [1], in experiment [2], in [3], in experiment [4], in experiment [5] and in [7] was greater than 100 µM throughout. For the same molecule, the TGI in [8] is greater than 100 µM.
Take `CC(=O)OCc1cc(=O)n(C)c2c3c4c(cc12)c(C)cc(=O)n4CO3`: the TGI amounted to 4.61 µM in [1]; 2.72 µM in experiment [2]; 37.8 µM in experiment [3]; 3.95 µM in experiment [4]; 12.7 µM in [5]; 4.69 µM in experiment [6]. Also, the TGI in experiment [7] was found to be 20.5 µM; in experiment [10], 14.2 µM; in experiment [8], 4.25 µM; in experiment [9], 5.3 µM.
Turning to `[N-]=[N+]=NC1CC(n2cc(COCC(F)(F)F)c(=O)[nH]c2=O)OC1CO` (centres undefined), the TGI in experiment [1], in experiment [2], in [4], in experiment [5], in experiment [6] and in experiment [7] was greater than 100 µM throughout. Further, the TGI in experiment [10], in experiment [8] and in experiment [9] was greater than 100 µM in each case.
For `CN(C)CCOC(=O)c1ccc(N)cc1`, the TGI is 31.4 µM in experiment [1]; greater than 100 µM in experiment [2]; greater than 100 µM in experiment [3]; 69.8 µM in [5]; greater than 100 µM in experiment [7]; 61.5 µM in experiment [8]. Moreover, the TGI in experiment [9] was greater than 100 µM.
Consider `O=C1c2ccccc2C(=O)c2c1ccc1c2N=C(c2ccc(F)cc2)CC(c2ccc(Cl)c(Cl)c2)N1` (centres undefined), for which the TGI in experiment [1] stood at 27.8 µM; in [3], 19.8 µM; in experiment [4], 34.9 µM; in experiment [5], 17.7 µM; in [6] it was 40.2 µM; in experiment [7], 28 µM. Besides, the TGI in experiment [10] was 41.5 µM; in experiment [8] it was greater than 100 µM; in [9] it was 54.9 µM.
As to `C[C@@H]1C[C@]2(C[C@@H](C)[C@H]3C(C[C@@]4(C)CCC[C@@H]5C6=C[C@H](CCC34C)OC6=CC(=O)OC5(C)C)O2)OC1=O` (some centres undefined), the TGI in experiment [1] is greater than 51.5 µM; in [3] it was greater than 51.5 µM; in experiment [4] it was greater than 51.5 µM; in experiment [5] it was greater than 51.5 µM; in [6] it was 47.5 µM; in experiment [7], greater than 51.5 µM. For the same molecule, the TGI in experiment [10], in experiment [8] and in [9] was greater than 51.5 µM in each case.
`CCOC(=O)c1c2c(n3ccc(NC(=O)OC(C)(C)C)cc13)C(=O)c1ncccc1C2=O`: the GI50 in [2] is 0.0997 µM; in [3] it was 0.0195 µM; in [4], 0.118 µM; in experiment [6] it was 0.167 µM; in experiment [7], 0.0971 µM; in experiment [8], 0.78 µM. The GI50 in [9] is 0.0339 µM. In addition, the TGI worked out at 1.27 µM in experiment [2]; 1.49 µM in experiment [3]; 0.549 µM in experiment [4]; 1.72 µM in [6]; 1.65 µM in [7]; 7.52 µM in experiment [8]. The molecule further yielded a TGI in [9] of 4.44 µM.
As for `CN(C)CCCNc1c2ccccc2nc2cccc([N+](=O)[O-])c12`, the TGI in experiment [1] was 0.00194 µM and 0.0131 µM; in [2], 0.00221 µM and 0.0136 µM; in experiment [3] it was 0.00142 µM; in [4] it was 0.00757 µM and 0.0252 µM; in experiment [5], 0.196 µM; in experiment [7], 0.0214 µM and 0.0509 µM. Moreover, the figures for the TGI in experiment [10], in experiment [8] and in experiment [9] were 0.0601 µM, 0.052 µM and 0.00198 µM, respectively. In addition, the GI50 is 0.029 µM in experiment [5] and 0.0197 µM in experiment [7].
`CSc1nc(NC2OCC(O)C(O)C2O)c(N)c(=O)n1C` (centres undefined): the TGI in experiment [1], in experiment [2], in experiment [3], in [4], in [5] and in [6] was greater than 100 µM in each case. The TGI in experiment [7], in experiment [10], in experiment [8] and in [9] was greater than 100 µM throughout.
For the molecule `Cc1cc(N=Cc2c(CO)cnc(C)c2O)c(N=Cc2c(CO)cnc(C)c2O)cc1C.[Zn]`, the TGI in experiment [1], in experiment [3], in [4], in experiment [6], in experiment [7] and in experiment [8] was greater than 100 µM in each case. The TGI in experiment [9] is greater than 100 µM.

Source of the values: PubChem BioAssay (NCI).
